Data taken from US20150258107A1, “METHODS AND COMPOSITIONS FOR TREATING DEPRESSION” (DemeRx, Inc., priority 2014, published 2015).
Entries after “also recorded” stand apart in the source; their conditions may differ. Like-named read-outs stand apart in the source and are kept apart here.

How the values were obtained:
[1] = system: healthy, drug-free male volunteers; test: Pupillometry (pupillary miosis) in healthy volunteers; type: in vivo, human; conditions: 3, 10, 30, 60 mg single oral dose
Method: Pulse oximetry and capnography data were collected continuously using a GE Carescape B650 monitoring system from 2 hours prior to dosing and until six hours after dosing, and thereafter at 12, 24, 48 and 72 hours post-dosing. […] Pupillary miosis was assessed by pupillometry.
Summary statistics (means, standard deviations, and coefficients of variation) were determined for each dose group for safety laboratory test data, ECG and pharmacokinetic parameters, and pharmacodynamic variables. Categorical variables were analysed using counts and percentages. Dose-proportionality of AUC and Cmax was assessed using linear regression. The effect of dose on pharmacodynamic parameter values over time was assessed using two-factor analysis of variance (ANOVA). Pairwise comparisons (with Tukey-Kramer adjustment) between each dose group to the placebo were conducted at each time point using the least squares estimates obtained from the ANOVA, using SAS Proc Mixed (SAS ver 6.0).

[2] = Plasma toxicokinetics in dogs, fourteen day repeat dose; type: in vivo, dog
Method: Noribogaine HCl was administered to groups of 4 male and 4 female dogs by single oral gavage daily for 14 days at doses of 0, 0.5, 1.0 and 5.0 mg/kg/day. An additional group of 4 male and 4 female dogs received either the vehicle control or 5.0 mg/kg/day for 14 days and were held for an additional 28 days after cessation of dosing to assess recovery from any potential drug-induced changes. The study was conducted under GLP guidelines and included comprehensive examinations of clinical signs, body weight, clinical pathology parameters, ophthalmologic examinations, ECG recordings and analyses of plasma for bioanalytical measurement of drug levels at appropriate intervals during the study. At the termination of the dosing phase and at the termination of the recovery phase, all dogs were subjected to a complete post-mortem examination including gross examination of major organs and histologic examination of an extensive list of tissues. Additional sections of brain were obtained from cerebrum, cerebellus, brain stem and spinal cord and examined histologically to evaluate potential effects on brain histopathology. In addition, these sections were examined with immunohistochemical stains for GFAP for evidence of gliosis and Calbindin for a more comprehensive examination of cerebellar Purkinje cells.

[3] = system: healthy, drug-free male volunteers; test: Safety and tolerability of noribogaine in healthy volunteers; type: in vivo, human
Method: Safety and tolerability of noribogaine were tested in the group of volunteers from Example 9. […] Safety evaluations included clinical monitoring, recording of adverse events (AEs), safety laboratory tests, vital signs, ECG telemetry from −2 h to 6 h after dosing, and 12-lead electrocardiograms (ECGs) up to 216 hours post-dosing.

[4] = system: opioid-dependent participants; test: QT interval in opioid-dependent participants; type: in vivo, human; conditions: 60, 120, 180 mg, first 24 hours post administration
Method: Patients' QT intervals were evaluated at regular time points throughout the study.

[5] = Pharmacokinetics in opioid-dependent patients (Phase IB study); type: in vivo, human; conditions: 60, 120, 180 mg
Method: Three cohorts of nine (9) subjects (6 administered noribogaine and 3 administered placebo in each cohort) were evaluated for tolerability, pharmacokinetics, and efficacy. Cohort 1 received a single dose of 60 mg noribogaine or placebo. Cohort 2 received a single dose of 120 mg noribogaine or placebo. Cohort 3 received a single dose of 180 mg noribogaine or placebo. […] Headaches were frequent in the placebo and 60 mg noribogaine treatment groups, but were attenuated in the 120 mg and 180 mg dose groups.

[6] = Human pharmacokinetic study, single oral tablet, fasting healthy volunteers (serum levels); type: in vivo; conditions: fasting; for Cmax: human, serum, oral
Method: In double blind studies, fasting healthy volunteers (6 per cohort) were treated once orally with a tablet of noribogaine HCl. In escalating cohorts, the volunteers received 3 mg, 10 mg, 30 mg or 60 mg noribogaine.

[7] = female, dog, plasma, po, 0.5 mg/kg, female dogs, Gr 2, 0.5 mg/kg, D1
[8] = female, dog, plasma, po, 0.5 mg/kg, female dogs, Gr 2, 0.5 mg/kg, D14
[9] = female, dog, plasma, po, 1 mg/kg, female dogs, Gr 3, 1.0 mg/kg, D1
[10] = female, dog, plasma, po, 1 mg/kg, female dogs, Gr 3, 1.0 mg/kg, D14
[11] = female, dog, plasma, po, 5 mg/kg, female dogs, Gr 4, 5.0 mg/kg, D1
[12] = female, dog, plasma, po, 5 mg/kg, female dogs, Gr 4, 5.0 mg/kg, D14
[13] = male, dog, plasma, po, 0.5 mg/kg, male dogs, Gr 2, 0.5 mg/kg, D1
[14] = male, dog, plasma, po, 0.5 mg/kg, male dogs, Gr 2, 0.5 mg/kg, D14
[15] = male, dog, plasma, po, 1 mg/kg, male dogs, Gr 3, 1.0 mg/kg, D1
[16] = male, dog, plasma, po, 1 mg/kg, male dogs, Gr 3, 1.0 mg/kg, D14
[17] = male, dog, plasma, po, 5 mg/kg, male dogs, Gr 4, 5.0 mg/kg, D1
[18] = male, dog, plasma, po, 5 mg/kg, male dogs, Gr 4, 5.0 mg/kg, D14

CC[C@H]1CC2C[C@H]3c4[nH]c5ccc(O)cc5c4CCN(C2)C13 [noribogaine]
Pupillary constriction [1]: no evidence of pupillary constriction | Cmax ([2]; female dogs, Gr 2, 0.5 mg/kg, D1): 25.3 ng/mL | Cmax ([2]; female dogs, Gr 2, 0.5 mg/kg, D14): 29.8 ng/mL | Cmax ([2]; female dogs, Gr 3, 1.0 mg/kg, D1): 68.5 ng/mL | Cmax ([2]; female dogs, Gr 3, 1.0 mg/kg, D14): 74.1 ng/mL | Cmax ([2]; female dogs, Gr 4, 5.0 mg/kg, D1): 691 ng/mL | Cmax ([2]; female dogs, Gr 4, 5.0 mg/kg, D14): 683 ng/mL | AUC(0-inf) [2, 7]: 44.9 ng·h/mL | Tmax [2, 7]: 0.5 h | half-life [2, 7]: 1 h | AUC(0-t) ([2]; female, dog, plasma, po, 0.5 mg/kg, female dogs, Gr 2, 0.5 mg/kg, D1, read-out: AUC0-24 h): 40.4 ng·h/mL | AUC(0-t) ([2]; female, dog, plasma, po, 0.5 mg/kg, female dogs, Gr 2, 0.5 mg/kg, D1, read-out: AUC0-last): 31.5 ng·h/mL | AUC(0-inf) [2, 8]: 45.7 ng·h/mL | Tmax [2, 8]: 1 h | half-life [2, 8]: 1.1 h | AUC(0-t) ([2]; female, dog, plasma, po, 0.5 mg/kg, female dogs, Gr 2, 0.5 mg/kg, D14, read-out: AUC0-24 h): 55 ng·h/mL | AUC(0-t) ([2]; female, dog, plasma, po, 0.5 mg/kg, female dogs, Gr 2, 0.5 mg/kg, D14, read-out: AUC0-last): 35.4 ng·h/mL | AUC(0-inf) [2, 9]: 165 ng·h/mL | Tmax [2, 9]: 0.8 h | half-life [2, 9]: 1.4 h | AUC(0-t) ([2]; female, dog, plasma, po, 1 mg/kg, female dogs, Gr 3, 1.0 mg/kg, D1, read-out: AUC0-24 h): 176 ng·h/mL | AUC(0-t) ([2]; female, dog, plasma, po, 1 mg/kg, female dogs, Gr 3, 1.0 mg/kg, D1, read-out: AUC0-last): 149 ng·h/mL | AUC(0-inf) [2, 10]: 197 ng·h/mL | Tmax [2, 10]: 0.5 h | half-life [2, 10]: 1.6 h | AUC(0-t) ([2]; female, dog, plasma, po, 1 mg/kg, female dogs, Gr 3, 1.0 mg/kg, D14, read-out: AUC0-24 h): 204 ng·h/mL | AUC(0-t) ([2]; female, dog, plasma, po, 1 mg/kg, female dogs, Gr 3, 1.0 mg/kg, D14, read-out: AUC0-last): 169 ng·h/mL | AUC(0-inf) [2, 11]: 3430 ng·h/mL | Tmax [2, 11]: 0.6 h | half-life [2, 11]: 4.3 h | AUC(0-t) ([2]; female, dog, plasma, po, 5 mg/kg, female dogs, Gr 4, 5.0 mg/kg, D1, read-out: AUC0-24 h): 3370 ng·h/mL | AUC(0-t) ([2]; female, dog, plasma, po, 5 mg/kg, female dogs, Gr 4, 5.0 mg/kg, D1, read-out: AUC0-last): 3370 ng·h/mL | AUC(0-inf) [2, 12]: 6280 ng·h/mL | half-life [2, 12]: 5.7 h | AUC(0-t) ([2]; female, dog, plasma, po, 5 mg/kg, female dogs, Gr 4, 5.0 mg/kg, D14, read-out: AUC0-24 h): 5950 ng·h/mL | AUC(0-t) ([2]; female, dog, plasma, po, 5 mg/kg, female dogs, Gr 4, 5.0 mg/kg, D14, read-out: AUC0-last): 5950 ng·h/mL | AUC(0-inf) [2, 13]: 67.8 ng·h/mL | Tmax [2, 13]: 0.7 h | half-life [2, 13]: 1.3 h | AUC(0-t) ([2]; male, dog, plasma, po, 0.5 mg/kg, male dogs, Gr 2, 0.5 mg/kg, D1, read-out: AUC0-24 h): 59.7 ng·h/mL | AUC(0-t) ([2]; male, dog, plasma, po, 0.5 mg/kg, male dogs, Gr 2, 0.5 mg/kg, D1, read-out: AUC0-last): 46.6 ng·h/mL | Cmax ([2]; male, dog, plasma, po, 0.5 mg/kg, male dogs, Gr 2, 0.5 mg/kg, D1, read-out: Cmax): 28.8 ng/mL | AUC(0-inf) [2, 14]: 68.2 ng·h/mL | Tmax [2, 14]: 0.7 h | half-life [2, 14]: 1.3 h | AUC(0-t) ([2]; male, dog, plasma, po, 0.5 mg/kg, male dogs, Gr 2, 0.5 mg/kg, D14, read-out: AUC0-24 h): 64.5 ng·h/mL | AUC(0-t) ([2]; male, dog, plasma, po, 0.5 mg/kg, male dogs, Gr 2, 0.5 mg/kg, D14, read-out: AUC0-last): 53.2 ng·h/mL | Cmax ([2]; male, dog, plasma, po, 0.5 mg/kg, male dogs, Gr 2, 0.5 mg/kg, D14, read-out: Cmax): 29.4 ng/mL | AUC(0-inf) [2, 15]: 121 ng·h/mL | Tmax [2, 15]: 0.9 h | half-life [2, 15]: 1.2 h | AUC(0-t) ([2]; male, dog, plasma, po, 1 mg/kg, male dogs, Gr 3, 1.0 mg/kg, D1, read-out: AUC0-24 h): 120 ng·h/mL | AUC(0-t) ([2]; male, dog, plasma, po, 1 mg/kg, male dogs, Gr 3, 1.0 mg/kg, D1, read-out: AUC0-last): 102 ng·h/mL | Cmax ([2]; male, dog, plasma, po, 1 mg/kg, male dogs, Gr 3, 1.0 mg/kg, D1, read-out: Cmax): 58.6 ng/mL | AUC(0-inf) [2, 16]: 196 ng·h/mL | Tmax [2, 16]: 0.8 h | half-life [2, 16]: 1.8 h | AUC(0-t) ([2]; male, dog, plasma, po, 1 mg/kg, male dogs, Gr 3, 1.0 mg/kg, D14, read-out: AUC0-24 h): 210 ng·h/mL | AUC(0-t) ([2]; male, dog, plasma, po, 1 mg/kg, male dogs, Gr 3, 1.0 mg/kg, D14, read-out: AUC0-last): 172 ng·h/mL | Cmax ([2]; male, dog, plasma, po, 1 mg/kg, male dogs, Gr 3, 1.0 mg/kg, D14, read-out: Cmax): 67.6 ng/mL | AUC(0-inf) [2, 17]: 3630 ng·h/mL | Tmax [2, 17]: 0.6 h | half-life [2, 17]: 4.7 h | AUC(0-t) ([2]; male, dog, plasma, po, 5 mg/kg, male dogs, Gr 4, 5.0 mg/kg, D1, read-out: AUC0-24 h): 3520 ng·h/mL | AUC(0-t) ([2]; male, dog, plasma, po, 5 mg/kg, male dogs, Gr 4, 5.0 mg/kg, D1, read-out: AUC0-last): 3520 ng·h/mL | Cmax ([2]; male, dog, plasma, po, 5 mg/kg, male dogs, Gr 4, 5.0 mg/kg, D1, read-out: Cmax): 693 ng/mL | AUC(0-inf) [2, 18]: 6960 ng·h/mL | Tmax [2, 18]: 0.9 h | half-life [2, 18]: 6.5 h | AUC(0-t) ([2]; male, dog, plasma, po, 5 mg/kg, male dogs, Gr 4, 5.0 mg/kg, D14, read-out: AUC0-24 h): 6400 ng·h/mL | AUC(0-t) ([2]; male, dog, plasma, po, 5 mg/kg, male dogs, Gr 4, 5.0 mg/kg, D14, read-out: AUC0-last): 6400 ng·h/mL | Cmax ([2]; male, dog, plasma, po, 5 mg/kg, male dogs, Gr 4, 5.0 mg/kg, D14, read-out: Cmax): 716 ng/mL | Adverse events reported ([3]; 3 mg dose group): five adverse events were reported by two subjects | Adverse events reported ([3]; 10 mg dose group): one adverse event was reported by single subjects | Single increase in QTcF (one subject) ([3]; 10 mg, 24 hours post-dosing): > 60 ms | Adverse events reported ([3]; 30 mg dose group): one adverse event was reported by single subjects | Oximetry, capnography, respiratory rate ([3]; 3-60 mg single oral dose): no changes in oximetry or capnography, or changes in respiratory rate | QTcF values >500 msec ([3]; 3-60 mg single oral dose): no QTcF values>500 msec at any time | Vital signs and safety laboratory tests ([3]; 3-60 mg single oral dose): no changes in vital signs or safety laboratory tests of note | Adverse events, Mild ([3]; Dose 3 mg): Back pain; also recorded: Dizziness; also recorded: Epistaxis; also recorded: Headache | Adverse events, Moderate ([3]; Dose 3 mg): Headache | Adverse events, Mild ([3]; Dose 10 mg): Headache | Adverse events, Mild ([3]; Dose 30 mg): Headache | QT interval prolongation (ΔQTc1) [4]: dose-dependent increase in QT interval prolongation | Dose dependence of maximum serum concentration (Cmax) [5]: increased in a dose-dependent manner | Cmax ([6]; single dose of 3 mg): 5.2 ng/mL | Cmax ([6]; single dose of 10 mg): 14.5 ng/mL | Cmax ([6]; single dose of 30 mg): 55.9 ng/mL | Cmax ([6]; single dose of 60 mg): 116 ng/mL | mean AUC/24 hr ([6]; single dose of 3 mg): 3.1 ng/mL | mean AUC/24 hr ([6]; single dose of 10 mg): 10.6 ng/mL | mean AUC/24 ([6]; single dose of 30 mg): 29.2 ng/mL | mean AUC/24 ([6]; single dose of 60 mg): 61 ng/mL
